Test results from patent publication US6958142B2, “Nasal spray formulation and method” (Balance Pharmaceuticals, Inc., priority 2002, dated 2005).

Legend:
[1] = test system: premenopausal women with uterine leiomyomata; assay: Example 3: uterine size (uterine volume from ultrasound); assay type: in vivo, human
Description: (§2) The compound was administered using a commercially available nasal sprayer that delivered a 50 μL spray volume. The daily dose was administered by application of 50 μL to each nostril once per day, for a total daily volume of 100 μL. During the 12 week treatment period the patients kept daily bleeding calendars and underwent clinical assessments at scheduled intervals.
(§3) A 12 week study was performed to establish an effective dose of deslorelin for controlling heavy bleeding secondary to uterine leiomyomata. Forty-one premenopausal women completed the study and are identified as Subject Nos. 1 through 41. The women were divided into test groups for treatment with intranasal deslorelin as follows:
(§4) For one complete menstrual cycle prior to treatment, each woman completed a daily bleeding calendar. Eligible subjects were then treated with deslorelin at the assigned dosage once per day by intranasal application. During the 12 weeks of daily intranasal administration, each woman kept a daily bleeding calendar, completed quality of life questionnaires, and underwent clinical assessment and laboratory testing.

[2] = test system: heavy bleeding secondary to uterine leiomyomata; assay: Example 3: bleeding score from daily bleeding calendars; assay type: in vivo, human
Description: as §2, §3, §4

[3] = test system: premenopausal females with uterine fibroids; assay: Example 8: reduction of bleeding into the normal range; assay type: in vivo, human; conditions: deslorelin 1 mg/day intranasal
Description: (§1) Premenopausal females (n=265) with uterine fibroids were recruited for participation in a 12 month double blind study. The women were randomly assigned to treatment in one of the following five study arms: Deslorelin at a daily dose of 1 mg was administered intranasally using a conventional metered spray delivery device. The intranasal preparation was a 100 μL daily nasal spray containing 1.0 mg deslorelin. […] Women with uterine fibroids often experience very heavy bleeding (menorrhagia) and uterine enlargement leading to pelvic pain and pressure symptoms. Clinical benefit was assessed by measuring changes in bleeding score (percent of subjects with reduction of bleeding into the normal range) and uterine volume. Shown in Table 9A are the percent of subjects responding (reduction of bleeding into the normal range) after 3 and 6 months of treatment.

[4] = test system: premenopausal females with uterine fibroids; assay: Example 8: change in uterine volume; assay type: in vivo, human; conditions: 6 Months of treatment compared to baseline
Description: as §1

[5] = test system: bone mineral density of the lumbar spine; conditions: in vivo
Description: Bone mineral density (BMD) of the lumbar spine was obtained by dual-energy X-ray absorptiometry (DEXA) prior to and after six months of drug treatment.

[6] = test system: ovarian estrogen and progesterone production; assay: Example 3: serum hormone levels
Description: In a first study, deslorelin was administered alone to determine an appropriate dose for treatment of an exemplary benign gynecological disorder, uterine leiomyomata (fibroids). More specifically, the dose appropriate to control the heavy bleeding secondary to uterine leiomyomata was determined. […] The compound was administered using a commercially available nasal sprayer that delivered a 50 μL spray volume. The daily dose was administered by application of 50 μL to each nostril once per day, for a total daily volume of 100 μL. During the 12 week treatment period the patients kept daily bleeding calendars and underwent clinical assessments at scheduled intervals. Clinical assessments included grading of nasal irritation (Table 5A), determination of uterine size (Table 5B), and serum hormone levels (Table 5C).
Eligible subjects were then treated with deslorelin at the assigned dosage once per day by intranasal application. During the 12 weeks of daily intranasal administration, each woman kept a daily bleeding calendar, completed quality of life questionnaires, and underwent clinical assessment and laboratory testing. […] Clinical assessments included grading of nasal irritation (Table 5A), determination of uterine size (Table 5B), and serum hormone levels (Table 5C).

[7] = Deslorelin 0.5 mg/day, Baseline
[8] = Deslorelin 0.5 mg/day, End of Week 4
[9] = Deslorelin 0.5 mg/day, End of Week 8
[10] = Deslorelin 0.5 mg/day, End of Week 12
[11] = Deslorelin 1 mg/day, End of Week 4
[12] = Deslorelin 1 mg/day, End of Week 8
[13] = Deslorelin 1 mg/day, End of Week 12
[14] = Deslorelin 2 mg/day, End of Week 4
[15] = Deslorelin 2 mg/day, End of Week 8
[16] = Deslorelin 2 mg/day, End of Week 12

CCNC(=O)[C@@H]1CCCN1C(=O)[C@H](CCCN=C(N)N)NC(=O)[C@H](CC(C)C)NC(=O)[C@@H](Cc1c[nH]c2ccccc12)NC(=O)[C@H](Cc1ccc(O)cc1)NC(=O)[C@H](CO)NC(=O)[C@H](Cc1c[nH]c2ccccc12)NC(=O)[C@H](Cc1cnc[nH]1)NC(=O)[C@@H]1CCC(=O)N1 [Deslorelin, (pyro)Pro-His-Trp-Ser-Tyr-DTrp-Leu-Arg-Pro-ethylamide]
uterine volume calculated from ultrasound determined dimensions (in words) ([1]; 0.5, 1.0, 2.0 mg/day, 12 weeks): reduction in uterine volume | Uterine Size Mean Difference (end of week 12 minus baseline uterine volume) ([1]; Deslorelin 0.5 mg/day intranasal): −109.6 cm^3 | Uterine Size Mean Difference (end of week 12 minus baseline uterine volume) ([1]; Deslorelin 1 mg/day intranasal): −63.6 cm^3 | Uterine Size Mean Difference (end of week 12 minus baseline uterine volume) ([1]; Deslorelin 2 mg/day intranasal): −246.5 cm^3 | Bleeding Score ([2]; Deslorelin 0.5 mg/day, Baseline Score, 0 no bleeding, 5 normal flow, 10 or greater menorrhagia): 10.9 | Bleeding Score ([2]; Deslorelin 0.5 mg/day, Weeks 1-4): 6.6 | Bleeding Score ([2]; Deslorelin 0.5 mg/day, Weeks 5-8): 3.5 | Bleeding Score ([2]; Deslorelin 0.5 mg/day, Weeks 9-12): 2.6 | Bleeding Score ([2]; Deslorelin 1 mg/day, Baseline Score): 10.8 | Bleeding Score ([2]; Deslorelin 1 mg/day, Weeks 1-4): 7.8 | Bleeding Score ([2]; Deslorelin 1 mg/day, Weeks 5-8): 0.4 | Bleeding Score ([2]; Deslorelin 1 mg/day, Weeks 9-12): 1.7 | Bleeding Score ([2]; Deslorelin 2 mg/day, Baseline Score): 14.1 | Bleeding Score ([2]; Deslorelin 2 mg/day, Weeks 1-4): 6.6 | Bleeding Score ([2]; Deslorelin 2 mg/day, Weeks 5-8): 1.2 | Bleeding Score ([2]; Deslorelin 2 mg/day, Weeks 9-12): 0.6 | effectiveness (in words) ([2]; all tested doses (0.5, 1.0, 2.0 mg/day)): partially or completely effective with reduction of bleeding, associated pain, and uterine size | bleeding score (in words) ([2]; end of the 12 week study): marked improvement in their bleeding score | % with reduction of bleeding into the normal range ([3]; 3 Months): 69% | % with reduction of bleeding into the normal range ([3]; 6 Months): 92% | Proportion of Initial Volume (uterine volume) [4]: 0.675 | Mean Ratio (BMD6 mo/BMDbaseline) [5]: 0.971 | Hormone Levels: Estradiol [6, 7]: 173 pg/mL | Hormone Levels: Progesterone [6, 7]: 641 ng/dL | Hormone Levels: Testosterone [6, 7]: 24 ng/dL | Hormone Levels: Estradiol [6, 8]: 47 pg/mL | Hormone Levels: Progesterone [6, 8]: 40 ng/dL | Hormone Levels: Testosterone [6, 8]: 19 ng/dL | Hormone Levels: Estradiol [6, 9]: 79 pg/mL | Hormone Levels: Progesterone [6, 9]: 30 ng/dL | Hormone Levels: Testosterone [6, 9]: 22 ng/dL | Hormone Levels: Estradiol [6, 10]: 66 pg/mL | Hormone Levels: Progesterone [6, 10]: 37 ng/dL | Hormone Levels: Testosterone [6, 10]: 23 ng/dL | Hormone Levels: Estradiol ([6]; Deslorelin 1 mg/day, Baseline): 123 pg/mL | Hormone Levels: Progesterone ([6]; Deslorelin 1 mg/day, Baseline): 480 ng/dL | Hormone Levels: Testosterone ([6]; Deslorelin 1 mg/day, Baseline): 26 ng/dL | Hormone Levels: Estradiol [6, 11]: 51 pg/mL | Hormone Levels: Progesterone [6, 11]: 12 ng/dL | Hormone Levels: Testosterone [6, 11]: 22 ng/dL | Hormone Levels: Estradiol [6, 12]: 95 pg/mL | Hormone Levels: Progesterone [6, 12]: 25 ng/dL | Hormone Levels: Testosterone [6, 12]: 20 ng/dL | Hormone Levels: Estradiol [6, 13]: 30 pg/mL | Hormone Levels: Progesterone [6, 13]: 10 ng/dL | Hormone Levels: Testosterone [6, 13]: 16 ng/dL | Hormone Levels: Estradiol ([6]; Deslorelin 2 mg/day, Baseline): 184 pg/mL | Hormone Levels: Progesterone ([6]; Deslorelin 2 mg/day, Baseline): 337 ng/dL | Hormone Levels: Testosterone ([6]; Deslorelin 2 mg/day, Baseline): 34 ng/dL | Hormone Levels: Estradiol [6, 14]: 14 pg/mL | Hormone Levels: Progesterone [6, 14]: 12 ng/dL | Hormone Levels: Testosterone [6, 14]: 16 ng/dL | Hormone Levels: Estradiol [6, 15]: 31 pg/mL | Hormone Levels: Progesterone [6, 15]: 14 ng/dL | Hormone Levels: Testosterone [6, 15]: 20 ng/dL | Hormone Levels: Estradiol [6, 16]: 30 pg/mL | Hormone Levels: Progesterone [6, 16]: 13 ng/dL | Hormone Levels: Testosterone [6, 16]: 20 ng/dL
